Each structure is given as a SMILES string. Like-named read-outs stand apart in the source and are kept apart here.

Experiment [1] concerns the target human RORγt ligand binding domain (RORγt LBD) (Homo sapiens (Human), UniProt P51449). Briefly: RORγt ThermoFluor® assay (thermal shift binding). As to conditions: read-out: ThermoFluor® Assay, Kd. Put shortly: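 His-tagged human RORγt LBD (0.065 mg/mL) with 60 μM 1,8-ANS in 100 mM Hepes pH 7.0, 10 mM NaCl, 2.5 mM GSH, 0.002% Tween-20 was heated at 1 °C/min.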
For orientation: Differential scanning fluorimetry follows unfolding on heating by fluorescence.

Experiment [2] has as its target full-length human RORγt (Homo sapiens (Human), UniProt P51449). Briefly: RORγt (full-length human) reporter assay, Conditions B or C. The note with it: for RORγt (FL) Reporter Assay B or C, % inhibition (value marked *): marked *: footnote not given. It counts as cell-based. In outline: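 HEK293T cells transiently co-transfected with GAL4-DBD–full-length human RORγt (nt 142-1635, NM_001001523.1) plus GAL4-firefly and CMV-Renilla luciferase reporters; compounds added 4-6 h post-transfection for 16-20 h in 1.3% FBS, 0.1% DMSO. Firefly signal normalized to DMSO and saturating reference compound, then to Renilla; IC50 from concentration plots.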
In general terms: Reporter assays use an easily measured gene product as a stand-in for the process of interest.

[3] abbreviates: Conditions B or C, read-out: RORγt (FL) Reporter Assay B or C, IC50.

full-length human RORγt, sequence (P51449 other isoform, or with tags, fused parts or gaps): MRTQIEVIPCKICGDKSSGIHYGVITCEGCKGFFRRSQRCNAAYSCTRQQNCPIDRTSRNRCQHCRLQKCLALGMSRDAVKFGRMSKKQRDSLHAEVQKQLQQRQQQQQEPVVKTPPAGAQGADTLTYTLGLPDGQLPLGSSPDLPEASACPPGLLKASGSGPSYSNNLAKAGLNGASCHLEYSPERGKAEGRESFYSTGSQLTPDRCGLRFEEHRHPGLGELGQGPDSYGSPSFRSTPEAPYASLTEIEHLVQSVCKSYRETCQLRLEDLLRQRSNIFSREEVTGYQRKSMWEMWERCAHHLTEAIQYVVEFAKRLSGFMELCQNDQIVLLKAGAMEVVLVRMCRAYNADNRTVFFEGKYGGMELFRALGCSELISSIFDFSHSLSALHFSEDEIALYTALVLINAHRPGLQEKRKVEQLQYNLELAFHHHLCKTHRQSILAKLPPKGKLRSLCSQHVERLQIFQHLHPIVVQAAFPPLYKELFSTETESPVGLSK
human RORγt ligand binding domain (RORγt LBD), sequence (P51449 other isoform, or with tags, fused parts or gaps): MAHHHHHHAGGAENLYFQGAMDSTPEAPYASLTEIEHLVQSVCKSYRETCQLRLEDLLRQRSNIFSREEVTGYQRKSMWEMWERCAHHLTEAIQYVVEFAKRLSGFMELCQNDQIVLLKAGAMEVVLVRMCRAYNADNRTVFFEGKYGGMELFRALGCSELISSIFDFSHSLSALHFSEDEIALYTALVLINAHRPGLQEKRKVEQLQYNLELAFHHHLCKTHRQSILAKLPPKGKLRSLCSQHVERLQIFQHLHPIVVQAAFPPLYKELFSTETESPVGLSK

In general, Kd refers to the free concentration of one partner at which half of the binding sites on the other are occupied at equilibrium, for simple one-to-one binding. A word on the IC50: it is the concentration that gives 50% inhibition. Regarding `C[C@@H](Nc1cc(C(F)(F)F)c(-c2sc(C(=O)NCC(C)(C)O)nc2C(=O)N2C3CCC2CC3)cn1)C1CCC1` (stereo in doubt) [Example 172, 4-((1s,4s)-7-Azabicyclo[2.2[1]heptane-7-carbonyl)-5-(6-(((R*)-1-cyclobutylethyl)amino)-4-(trifluoromethyl)pyridine-3-yl)-N-(2-hydroxy-2-methylpropyl)thiazole-2-carboxamide], the Kd in experiment [1] was determined as 1.2 nM. Besides, the “RORγt (FL) Reporter Assay B or C, % inhibition (value marked *)” value (shortened to “RORγt … % inhibition (value marked *)”) in experiment [2] (Conditions B or C) was 102* %. Moreover, the half-maximal inhibitory concentration (IC50) in experiment [2] (setting [3]) worked out at 0.039 µM.
As a reminder, the inhibition is the change of the read-out against control, counted positive when it falls. `C[C@H]1CCCCN1C(=O)c1nc(C(=O)NCC(C)(C)O)sc1-c1cnc(N[C@H](C)C(F)(F)F)cc1C(F)(F)F` [Example 45, N-(2-Hydroxy-2-methylpropyl)-4-((S)-2-methylpiperidine-1-carbonyl)-5-(4-(trifluoromethyl)-6-(((R)-1,1,1-trifluoropropan-2-yl)amino)pyridin-3-yl)thiazole-2-carboxamide]: the Kd in experiment [1] was 0.62 nM. The IC50 in experiment [2] (setting [3]) was found to be 0.01 µM. For the same molecule, in experiment [2] (read-out: RORγt (FL) Reporter Assay B or C, % inhibition @ 6 μM, Conditions B or C, @ 6 μM), the inhibition at 6 µM amounted to 111%.
As to `C[C@H](Nc1cc(C(F)(F)F)c(-c2sc(C(=O)N[C@@H](C)C(C)(C)O)nc2C(=O)N2CC(F)(F)C[C@@H]2C)cn1)C1CC1` [Example 202, 5-(6-(((S)-1-Cyclopropylethyl)amino)-4-(trifluoromethyl)pyridine-3-yl)-4-((S)-4,4-difluoro-2-methylpyrrolidine-1-carbonyl)-N—((S)-3-hydroxy-3-methylbutan-2-yl)thiazole-2-carboxamide], the Kd in experiment [1] amounted to 1.3 nM. In addition, the “RORγt … % inhibition (value marked *)” value in experiment [2] (Conditions B or C) is reported as 98* %. Besides, in experiment [2] (setting [3]), the IC50 worked out at 0.017 µM.
On the same counts, the results for `C[C@H]1CC(F)(F)CN1C(=O)c1nc(C(=O)NCC(C)(C)O)sc1-c1cnc(NCC2(C(F)(F)F)CC2)cc1C(F)(F)F` [Example 126, (S)-4-(4,4-Difluoro-2-methylpyrrolidine-1-carbonyl)-N-(2-hydroxy-2-methylpropyl)-5-(4-(trifluoromethyl)-6-(((1-(trifluoromethyl)cyclopropyl)methyl)amino)pyridin-3-yl)thiazole-2-carboxamide] are 0.85 nM, 98* % and 0.069 µM.
On to `C[C@@H](O)[C@@H](C)NC(=O)c1nc(C(=O)N2CCC[C@@H]2C)c(-c2cnc(NC(C)(C)C)cc2C(F)(F)F)s1` (relative stereo) [Example 237, 5-(6-(tert-Butylamino)-4-(trifluoromethyl)pyridin-3-yl)-N-((2R*,3R*)-3-hydroxybutan-2-yl)-4-((S)-2-methylpyrrolidine-1-carbonyl)thiazole-2-carboxamide], for which the Kd in experiment [1] is 2.3 nM. The “RORγt … % inhibition (value marked *)” value in experiment [2] (Conditions B or C) is given as 101* %. In addition, the IC50 in experiment [2] (setting [3]) was 0.031 µM.
`CC[C@H](Nc1cc(C(F)F)c(-c2sc(C(=O)N[C@H](C)CO)nc2C(=O)N2C3CCC2CC3)cn1)C(F)(F)F` [Example 227, 4-((1s,4s)-7-Azabicyclo[2.2.1]heptane-7-carbonyl)-5-(4-(difluoromethyl)-6-(((1S)-1-(trifluoromethyl)propyl)amino)-3-pyridyl)-N-((1R)-2-hydroxy-1-methyl-ethyl)thiazole-2-carboxamide]: the Kd in experiment [1] worked out at 4.6 nM. For the same molecule, the “RORγt … % inhibition (value marked *)” value in experiment [2] (Conditions B or C) was 95* %. In addition, half-maximal inhibition in experiment [2] (RORγt (FL) Reporter Assay B or C, IC50 (μM), Conditions B or C) (IC50) was put at 0.014 µM.
With `C[C@H]1CCCN1C(=O)c1nc(C(=O)N[C@H]2C[C@H](O)C2)sc1-c1cnc(N[C@H](C2CC2)C(F)(F)F)cc1C(F)F` [Example 320, 5-(6-(((R)-1-Cyclopropyl-2,2,2-trifluoroethyl)amino)-4-(difluoromethyl)pyridin-3-yl)-N-((1r,3S)-3-hydroxycyclobutyl)-4-((S)-2-methylpyrrolidine-1-carbonyl)thiazole-2-carboxamide], the Kd in experiment [1] is 3.8 nM. Also, the inhibition at 3 µM in experiment [2] (at 3 μM compound concentration, read-out: RORγt (FL) Reporter Assay B or C, % inhibition) is 98%. Besides, the IC50 in experiment [2] (read-out: RORγt (FL) Reporter Assay B or C, IC50) was 0.046 µM.

The values are drawn from US10975068B2, “6-aminopyridin-3-yl thiazoles as modulators of RORγT” (Janssen Pharmaceutica NV, priority 2016, dated 2021).
